Results published in EP0738149B1 (priority 1994, dated 1995).
Counter-ions that a name gives are not always drawn.

Tests used:
mice = experiment: Maximal electroshock (MES) model in mice, i.p.;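 as to all read-outs here: Electroshock-induced convulsion model serving to demonstrate antiepileptic efficacy against generalized and partial seizures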; type: in vivo; conditions: for ED50: Mus musculus, ip; for activity in the MES model in mice: statement in words
[1] = Neurotoxicity in rats (positional sense test and gait stance test), p.o.; conditions: rat, in vivo, po
Procedure: (§1) Neurotoxicity of the claimed agents was also assessed in mice (i.p. administration) by the rotorod ataxia test and/or in rats (p.o. administration) by positional sense test and gait stance test. […] The term quantitating the neurotoxicity is the medial neurological toxic dose (TD50), was determined in the above tests.

[2] = Neurotoxicity in mice (rotorod ataxia test), i.p.; conditions: mouse, in vivo, ip
Procedure: as §1

rats [3] = experiment: Maximal electroshock (MES) model in rats, p.o.;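 as to all read-outs here: rat MES model gauging antiepileptic efficacy versus generalized and partial seizures after oral dosing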; type: in vivo; conditions: rats, p.o., Table 15; for ED50: Rattus norvegicus, po, read-out: RATS MES 50
rats [4] = experiment: Neurotoxicity in rats (positional sense test and gait stance test), p.o.; conditions: rats, p.o.; Table 16
Procedure: as §1

male ICR albino mice = experiment: Hypobaric hypoxia survival time in mice; type: in vivo
Procedure: Dessicator B was disconnected and allowed to equilibrate with room air whilst dessicator A was evacuated to a pressure of 100mmHg. […] The survival time from the moment of induction of hypoxia to the time of cessation of respiration was recorded for each mouse for a maximum of 15 minutes after which time room air was reintroduced to dessicator B. Survivors were monitored for signs of lethargy or vitality.
Effect of drug treatment was assessed as the percent of the survival time of the drug treated group with respect to the saline injected or vehicle injected control group. Control groups were run twice, before and after each experimental group and consisted of 12-16 mice in groups of 4 mice. Each experimental group always consisted of 4 mice to ensure a constant residual volume of oxygen in all tests. The effect of each dose of test drug was determined in duplicate i.e. two groups of 4 mice.
All drugs were administered intra-peritoneally at the dose indicated one hour prior to exposure to hypoxia.

[5] = 50 mg/kg ip one hour prior to hypoxia
[6] = 100 mg/kg ip one hour prior to hypoxia

Row | SMILES | TD50 [1] | TD50 ([2]; MICE TD50, mice, Table 15) | ED50 (mice; Table 15) | RATS MES 50 (rats [3]) | other results
1 | NC(=O)CNC1CCCc2ccccc21 (racemic) [Example 4, (rac)-N-(2-Acetamido)-1-aminotetralin] | – | – | – | – | MICE MES ED50 (mice; i.p., Table 15): <100 mg/kg
2 | CCCC(=O)NC1CCc2ccccc21 (racemic) [Example 11, (rac)-N-Butyryl-1-aminoindan] | > 50 mg/kg | < 300 mg/kg | < 300 mg/kg | – | ED50 (rats [3]): < 50 mg/kg
3 | CN(C)C1CCc2ccccc21 (racemic) [Example 15, (rac)-N,N-Dimethyl-1-aminoindan.HCl] | > 50 mg/kg | < 100 mg/kg | – | 50 mg/kg | RATS TD50 (rats [4]): >50 mg/kg; TD50 ([2]; MICE TD50, mice, Table 16): < 100 mg/kg
4 | c1ccc(CNC2CCc3ccccc32)cc1 (racemic) [Example 16, (rac)-N-Benzyl-1-aminoindan.HCl] | > 50 mg/kg | – | < 50 mg/kg | 50 mg/kg | –
5 | CC(=O)NC1CCc2cccc(C)c21 (racemic) [Example 20, (rac)-7-Methyl-N-acetyl-1-aminoindan] | > 50 mg/kg | – | < 100 mg/kg | – | TD50 ([2]; MICE TD50): 100 mg/kg; ED50 (rats [3]): < 50 mg/kg
6 | COc1ccc2c(c1)C(N)CC2 (racemic) [Example 25, (rac)-6-Methoxy-1-aminoindan.HCl] | – | > 100 mg/kg | < 100 mg/kg | 50 mg/kg | –
7 | Cc1cccc2c1C(N)CC2 (racemic) [Example 28, (rac)-7-Methyl-1-aminoindan.HCl] | > 50 mg/kg | < 100 mg/kg | < 100 mg/kg | <50 mg/kg | PROTECTION % OF RESPECTIVE CONTROL (male ICR albino mice; [5]): 361±106 % OF RESPECTIVE CONTROL; PROTECTION % OF RESPECTIVE CONTROL (male ICR albino mice; [6]): 941±34 % OF RESPECTIVE CONTROL
8 | COc1ccc2c(c1OC)CCC2N (racemic) [Example 31, (rac)-4,5-Dimethoxy-1-aminoindan.HCl] | > 50 mg/kg | < 100 mg/kg | < 100 mg/kg | – | activity in the MES model in mice (mice): showed activity
9 | NC1CCc2ccc(O)cc21 (racemic) [Example 34, (rac)-6-Hydroxy-1-aminoindan.HCl] | – | > 300 mg/kg | < 300 mg/kg | – | activity in the MES model in mice (mice): showed activity
10 | Cc1ccc2c(c1)CCC2N (racemic) [Example 38, (rae)-5-Methyl-1-aminoindan.HCl] | > 50 mg/kg | < 100 mg/kg | < 100 mg/kg | 50 mg/kg | –
11 | Cc1cc(C)c2c(c1)C(C)CC2N.Cl (racemic) [Example 41, (rac)-3,5,7-Trimethyl-1-aminoindan.HCl] | – | – | – | – | PROTECTION % OF RESPECTIVE CONTROL (male ICR albino mice; [5]): 187±41 % OF RESPECTIVE CONTROL; PROTECTION % OF RESPECTIVE CONTROL (male ICR albino mice; [6]): 644±316 % OF RESPECTIVE CONTROL
12 | NC1CCc2cccc(O)c21 (racemic) [Example 42, (rac)-7-Hydroxy-1-aminoindan.HCl] | > 50 mg/kg | – | – | <50 mg/kg | PROTECTION % OF RESPECTIVE CONTROL (male ICR albino mice; [5]): 179±170 % OF RESPECTIVE CONTROL; PROTECTION % OF RESPECTIVE CONTROL (male ICR albino mice; [6]): 228±119 % OF RESPECTIVE CONTROL
